Measurements as given in patent publication US12559481B2, “Quinoline derivatives” (ELANCO ANIMAL HEALTH GMBH, priority 2018, dated 2026).

Legend:
[1] = system: Dirofilaria immitis third-stage larvae; test: In vitro assay 5: Dirofilaria immitis (DIROIM L4) larval motility; conditions: 72 h, read-out: EC50 (reduction of motility)
D. immitis Slo-1 = D. immitis Slo-1 (Dirofilaria immitis, UniProt I0DFK5); test: In vitro assay 2: D. immitis Slo-1, membrane potential in recombinant CHO cell line; assay type: cell-based
D. immitis Slo-1, sequence (I0DFK5 1-1119): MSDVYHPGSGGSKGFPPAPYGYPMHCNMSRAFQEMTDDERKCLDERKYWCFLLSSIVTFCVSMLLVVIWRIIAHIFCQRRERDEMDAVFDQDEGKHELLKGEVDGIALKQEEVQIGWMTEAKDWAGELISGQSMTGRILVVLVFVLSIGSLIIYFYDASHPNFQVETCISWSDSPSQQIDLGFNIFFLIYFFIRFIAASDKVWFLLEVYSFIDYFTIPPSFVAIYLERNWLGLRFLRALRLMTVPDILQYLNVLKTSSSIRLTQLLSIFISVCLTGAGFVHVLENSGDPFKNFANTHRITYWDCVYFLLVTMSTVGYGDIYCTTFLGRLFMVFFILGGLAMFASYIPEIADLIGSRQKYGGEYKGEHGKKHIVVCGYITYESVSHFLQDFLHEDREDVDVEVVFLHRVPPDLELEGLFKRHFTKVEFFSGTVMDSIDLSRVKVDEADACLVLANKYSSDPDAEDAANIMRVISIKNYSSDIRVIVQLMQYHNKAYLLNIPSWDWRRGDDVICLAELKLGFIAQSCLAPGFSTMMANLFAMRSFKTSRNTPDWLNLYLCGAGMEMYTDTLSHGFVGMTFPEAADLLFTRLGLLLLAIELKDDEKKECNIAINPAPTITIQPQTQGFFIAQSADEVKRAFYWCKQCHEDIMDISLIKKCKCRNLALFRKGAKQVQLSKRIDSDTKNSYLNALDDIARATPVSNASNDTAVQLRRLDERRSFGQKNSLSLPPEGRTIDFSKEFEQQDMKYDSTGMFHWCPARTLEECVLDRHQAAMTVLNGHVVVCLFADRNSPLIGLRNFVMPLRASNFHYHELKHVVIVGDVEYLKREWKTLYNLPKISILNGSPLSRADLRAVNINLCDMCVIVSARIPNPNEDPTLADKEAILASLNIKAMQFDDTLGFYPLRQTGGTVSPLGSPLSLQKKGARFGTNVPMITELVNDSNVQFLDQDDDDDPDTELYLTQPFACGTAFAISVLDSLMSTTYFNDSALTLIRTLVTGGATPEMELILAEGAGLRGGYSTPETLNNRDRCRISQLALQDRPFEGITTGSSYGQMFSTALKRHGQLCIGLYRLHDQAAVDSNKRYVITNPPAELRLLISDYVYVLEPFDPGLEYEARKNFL

[2] = system: Adult Nippostrongylus brasiliensis; test: In vitro assay 3: Nippostrongylus brasiliensis (NIPOBR), acetylcholine esterase readout; conditions: read-out: activity (reduction of AChE compared to negative control); for inhibition at 1 µg/mL: 1 μg/ml; for inhibition at 10 µg/mL: 10 μg/ml
Protocol: In Vitro Assay 3: Nippostrongylus Brasiliensis (NIPOBR)
Adult Nippostrongylus brasiliensis were washed with saline buffer containing 100 U/ml penicillin, 0.1 mg/ml streptomycin and 2.5 μg/ml amphotericin B. Test compounds were dissolved in DMSO and worms were incubated in medium in a final concentration of 10 μg/ml (10 ppm) respectively 1 μg/ml (1 ppm). An aliquot of the medium was used to determine the acetylcholine esterase activity in comparison to a negative control. The principle of measuring acetylcholine esterase as readout for anthelmintic activity was described in Rapson et al (1986) and Rapson et al (1987).

[3] = system: Dirofilaria immitis microfilariae; test: In vitro assay 4: Dirofilaria immitis microfilariae (DIROIM L1) motility; conditions: 72 h, read-out: EC50 (reduction of motility)
Haemonchus contortus = test: In vitro assay 7: Haemonchus contortus (HAEMCO) larval mortality; conditions: 120 h, read-out: activity (larval mortality)
Protocol: In Vitro Assay 7: Haemonchus contortus (HAEMCO)
Solvent: Dimethyl Sulfoxide
Approximately 40 larvae of the red stomach worm (Haemonchus contortus) are transferred into a test tube containing compound solution.
After 5 days the percentage of larval mortality is recorded. 100% efficacy means all larvae are killed, 0% efficacy means no larvae are killed.

C. elegans Slo-1a = C. elegans Slo-1a (Caenorhabditis elegans, UniProt Q95V25)
C. elegans Slo-1a, sequence (Q95V25 whole entry): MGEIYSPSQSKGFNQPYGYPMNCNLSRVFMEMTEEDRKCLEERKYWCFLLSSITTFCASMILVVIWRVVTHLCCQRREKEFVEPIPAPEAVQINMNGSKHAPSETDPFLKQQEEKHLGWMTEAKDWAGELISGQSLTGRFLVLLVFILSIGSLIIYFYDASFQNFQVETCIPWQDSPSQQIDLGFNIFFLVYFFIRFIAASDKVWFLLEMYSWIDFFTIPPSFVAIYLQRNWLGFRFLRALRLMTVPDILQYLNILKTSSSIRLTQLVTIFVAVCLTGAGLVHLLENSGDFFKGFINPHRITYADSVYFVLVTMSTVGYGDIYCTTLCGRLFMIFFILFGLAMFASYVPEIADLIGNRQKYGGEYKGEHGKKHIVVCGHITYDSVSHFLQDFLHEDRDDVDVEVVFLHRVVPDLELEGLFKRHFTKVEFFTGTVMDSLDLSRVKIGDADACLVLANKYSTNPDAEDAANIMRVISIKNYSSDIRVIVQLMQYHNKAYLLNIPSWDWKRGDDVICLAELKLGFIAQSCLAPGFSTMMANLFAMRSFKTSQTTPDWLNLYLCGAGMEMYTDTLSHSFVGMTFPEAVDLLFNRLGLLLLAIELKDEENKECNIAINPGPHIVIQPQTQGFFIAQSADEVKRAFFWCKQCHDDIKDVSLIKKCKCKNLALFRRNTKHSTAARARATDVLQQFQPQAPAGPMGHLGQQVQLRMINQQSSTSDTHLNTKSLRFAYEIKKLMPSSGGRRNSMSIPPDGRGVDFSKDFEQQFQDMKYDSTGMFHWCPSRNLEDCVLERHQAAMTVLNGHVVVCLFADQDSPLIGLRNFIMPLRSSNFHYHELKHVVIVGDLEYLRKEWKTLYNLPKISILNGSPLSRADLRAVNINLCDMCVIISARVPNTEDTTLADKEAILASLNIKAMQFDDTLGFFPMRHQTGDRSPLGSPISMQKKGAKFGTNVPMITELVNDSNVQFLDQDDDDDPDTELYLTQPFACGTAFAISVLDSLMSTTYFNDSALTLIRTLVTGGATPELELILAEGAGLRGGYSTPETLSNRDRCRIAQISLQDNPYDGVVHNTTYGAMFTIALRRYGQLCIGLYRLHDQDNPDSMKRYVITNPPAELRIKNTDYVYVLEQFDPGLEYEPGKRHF
Protocol: In Vitro Assay 1: C. elegans Slo-1a—Action at a Recombinant C. elegans Cell Line
Generation of a Stable C. elegans CHO Cell Line
For transfection with plasmid DNA to express C. elegans Slo-1a (accession number AAL28102) CHO cells were passaged to 40% confluence before adding the transfection solution to the cell culture. The transfection solution included 300 μL OptiMEM (Life Technologies, Nr.: 31985), 2 μL (=6 μg) of plasmid DNA containing the C. elegans Slo 1a gene and 9 μL FugeneHD (Promega, Nr.: E2311), and was added to the cells prior to incubation for 48 hours at 37° C., 5% CO2. The transfection medium was exchanged for the selection medium which contains additional G418 (2 mg/ml, Invitrogen, Nr.: 10131) and the cells were seeded into 384 well plates (300 cells/well). After a few weeks, the remaining surviving cells were tested with a voltage sensitive dye (Membrane Potential Assay Kit, Molecular Devices Nr.: R8034) for K+ channel expression. Positive cell clones were purified by the limited dilution technique. For this the clone with the highest and most robust signal in the voltage sensitive dye assay was further subcloned (incubated) in 384 well plates (0.7 cells/well) in order to obtain clonal purity. This generated a final stable CHO cell line expressing the C. elegans Slo-1a.
Cells were cultured at 37° C., and 5% CO2 in MEMalpha with Glutamax I (Invitrogen, Nr.: 32571), supplemented with 10% (v/v) heat inactivated fetal bovine serum (Invitrogen, Nr.: 10500), G418 (1 mg/ml. Invitrogen. Nr.: 10131). Cells were detached using Accutase (Sigma. Nr.: A6964).
Membrane Potential Measurements
Laboratory compound testing was performed on 384-well microtiter plates (MTPs, Greiner, Nr.: 781092), 8000 cells/well were plated onto 384-well MTPs and cultured for 20 to 24 hours at 37° C., and 5% CO2. After removal of the cell culture medium, the cells were washed once with tyrode (150 mM NaCl, 0.3 mM KCl, 2 mM CaCl2. 1 mM MgCl2. 0.8 mM NaH2PO4, 5 mM Glucose, 28 mM Hepes, pH 7.4) and then loaded with the voltage sensitive dye of the Membrane Potential Assay Kit diluted in tyrode for 1 h at room temperature.
After starting the measurement of fluorescence using a FLIPR Tetra (Molecular Devices, Exc. 510-545 nm, Emm. 565-625 nm), test compounds were added followed by the addition of KCl tyrode (final assay concentration: 70 mM KCl, 2 mM CaCl2, 1 mM MgCl2, 0.8 mM NaH2PO4, 5 mM Glucose, 28 mM Hepes, pH 7.4, including the voltage sensitive dye). The measurement was completed after 7 minutes.
The data were evaluated by using the ActivityBase XLfit software (IDBS) for curve fitting and calculation of the half-maximal effective concentration (EC50) and are reported as negative decadic logarithm (pE50).

Cooperia curticei = test: In vitro assay 6: Cooperia curticei (COOPCU) larval mortality; conditions: 120 h, read-out: activity (larval mortality)
Protocol: In Vitro Assay 6: Cooperia curticei (COOPCU)
Solvent: Dimethyl Sulfoxide
Approximately 40 nematode larvae (Cooperia curticei) are transferred into a test tube containing the compound solution.
After 5 days percentage of larval mortality is recorded. 100% efficacy means all larvae are killed; 0% efficacy means no larvae are killed.

[4] = log P by HPLC on reversed phase columns (LC-MS Method 0)
Protocol: Measurement of log P values was performed according to EEC directive 79/831 Annex V.A8 by HPLC (High Performance Liquid Chromatography) on reversed phase columns with the following methods, instrument(s): Agilent 1100 LC system, Agilent MSD system, HTS PAL; Waters IClass Acquity UPLC, SQD2 (MS), PDA (LV). • ^[a] log P value is determined by measurement of LC-UV, in an acidic range, with 0.1% formic acid in water and acetonitrile as eluent (linear gradient from 10% acetonitrile to 95% acetonitrile). • ^[b] log P value is determined by measurement of LC-UV, in a neutral range, with 0.001 molar ammonium acetate solution in water and acetonitrile as eluent (linear gradient from 10% acetonitrile to 95% acetonitrile).
Calibration was done with straight-chain alkan-2-ones (with 3 to 16 carbon atoms) with known log P values (measurement of log P values using retention times with linear interpolation between successive alkanones). Lambda-max-values were determined using UV-spectra from 200 nm to 400 nm and the peak values of the chromatographic signals.

Structure (SMILES) | EC50 [1] | EC50 (D. immitis Slo-1) | inhibition at 1 µg/mL [2] | inhibition at 10 µg/mL [2] | EC50 [3] | mortality at 20 ppm (Haemonchus contortus) | EC50 (C. elegans Slo-1a) | mortality at 0.8 ppm (Cooperia curticei) | mortality at 4 ppm (Cooperia curticei) | mortality at 20 ppm (Cooperia curticei) | mortality at 4 ppm (Haemonchus contortus) | chromatographic logP [4]
O=C(NC1COc2ccccc21)c1cnc2c(-c3cc(F)cc(F)c3F)cccc2c1C1CCOCC1 (racemic) [Example 17] | < 0.1 µg/mL | 316 to 5010 nM | > 80% | > 80% | < 0.1 µg/mL | – | – | – | – | – | – | –
O=C(N[C@H]1CCOc2ccccc21)c1cnc2c(-c3cc(F)cc(F)c3F)cccc2c1C1=CCOCC1 [Example 1, N-[(4S)-3,4-Dihydro-2H-chromen-4-yl]-4-(3,6-dihydro-2H-pyran-4-yl)-8-(2,3,5-trifluorophenyl)quinoline-3-carboxamide] | < 0.1 µg/mL | 31.6 to 316 nM | > 80% | – | < 0.1 µg/mL | 80% | < 3.16 nM | 90% | 90% | 90% | – | –
O=C(N[C@H]1CCOc2ccccc21)c1cnc2c(-c3cc(F)cc(F)c3F)cccc2c1C1CCOCC1 [Example 2, N-[(4S)-3,4-Dihydro-2H-chromen-4-yl]-4-(tetrahydro-2H-pyran-4-yl)-8-(2,3,5-trifluorophenyl)quinoline-3-carboxamide] | < 0.1 µg/mL | 3.16 to 31.6 nM | > 80% | > 80% | < 0.1 µg/mL | 90% | < 3.16 nM | 100% | 100% | – | 90% | –
O=C(N[C@H]1CCOc2ccccc21)c1cnc2c(-c3cc(F)cc(F)c3F)c(F)ccc2c1C1CCOCC1 [Example 3, N-[(4S)-3,4-Dihydro-2H-chromen-4-yl]-7-fluoro-4-(tetrahydro-2H-pyran-4-yl)-8-(2,3,5-trifluorophenyl)quinoline-3-carboxamide] | < 0.1 µg/mL | 3.16 to 31.6 nM | > 80% | > 80% | < 0.1 µg/mL | – | – | – | – | – | – | –
CCc1c(C(=O)N[C@H]2CCOc3ccccc32)cnc2c(-c3cc(F)cc(F)c3F)c(F)ccc12 [Example 4, N-[(4S)-3,4-Dihydro-2H-chromen-4-yl]-4-ethyl-7-fluoro-8-(2,3,5-trifluorophenyl)quinoline-3-carboxamide] | < 0.1 µg/mL | 3.16 to 31.6 nM | > 80% | > 80% | < 0.1 µg/mL | – | < 3.16 nM | – | – | – | – | –
O=C(N[C@H]1CCOc2ccccc21)c1cnc2c(-c3cc(F)cc(F)c3F)c(F)ccc2c1N1CC(F)C1 [Example 5, N-[(4S)-3,4-Dihydro-2H-chromen-4-yl]-7-fluoro-4-(3-fluoroazetidin-1-yl)-8-(2,3,5-trifluorophenyl)quinoline-3-carboxamide] | < 0.1 µg/mL | 3.16 to 31.6 nM | > 80% | > 80% | < 0.1 µg/mL | – | 3.16 to 31.6 nM | – | – | – | – | 1.93
O=C(N[C@H]1CCOc2ccccc21)c1cnc2c(-c3cc(F)cc(F)c3F)c(F)ccc2c1C1=CCOCC1 [Example 6, N-[(4S)-3,4-dihydro-2H-chromen-4-yl]-4-(3,6-dihydro-2H-pyran-4-yl)-7-fluoro-8-(2,3,5-trifluorophenyl)quinoline-3-carboxamide] | < 0.1 µg/mL | 3.16 to 31.6 nM | > 80% | > 80% | < 0.1 µg/mL | – | – | – | – | – | – | –
COc1ccc2c(C3CCOCC3)c(C(=O)N[C@H]3CCOc4ccccc43)cnc2c1-c1cc(F)cc(F)c1F [Example 7, N-[(4S)-3,4-dihydro-2H-chromen-4-yl]-7-methoxy-4-(tetrahydro-2H-pyran-4-yl)-8-(2,3,5-trifluorophenyl)quinoline-3-carboxamide] | < 0.1 µg/mL | 3.16 to 31.6 nM | > 80% | > 80% | < 0.1 µg/mL | – | < 3.16 nM | – | – | – | – | –
O=C(NC1CCSc2ccc(F)cc21)c1cnc2c(-c3cc(F)cc(F)c3F)c(F)ccc2c1N1CC(F)C1 (stereo not drawn) [Example 8] | < 0.1 µg/mL | 316 to 5010 nM | – | > 80% | < 0.1 µg/mL | – | – | – | – | – | – | –
Cc1ccc2c(c1)[C@@H](NC(=O)c1cnc3c(-c4cc(F)cc(F)c4F)c(F)ccc3c1N1CC(F)C1)CCO2 [Example 9] | < 0.1 µg/mL | 316 to 5010 nM | > 80% | > 80% | < 0.1 µg/mL | – | – | – | – | – | – | –
O=C(N[C@H]1CCOc2ccc(F)cc21)c1cnc2c(-c3cc(F)cc(F)c3F)c(F)ccc2c1N1CC(F)C1 [Example 10] | < 0.1 µg/mL | 31.6 to 316 nM | > 80% | > 80% | < 0.1 µg/mL | – | < 3.16 nM | – | – | – | – | –
O=C(N[C@H]1CCCc2ccccc21)c1cnc2c(-c3cc(F)cc(F)c3F)c(F)ccc2c1N1CC(F)C1 [Example 11] | < 0.1 µg/mL | – | > 80% | > 80% | < 0.1 µg/mL | – | < 3.16 nM | – | – | – | – | –
O=C(N[C@H]1CCc2ccccc21)c1cnc2c(-c3cc(F)cc(F)c3F)c(F)ccc2c1N1CC(F)C1 [Example 12] | < 0.1 µg/mL | 31.6 to 316 nM | > 80% | > 80% | < 0.1 µg/mL | – | < 3.16 nM | – | – | – | – | –
CC1(C)C[C@H](NC(=O)c2cnc3c(-c4cc(F)cc(F)c4F)c(F)ccc3c2N2CC(F)C2)c2ccccc2O1 [Example 13] | < 0.1 µg/mL | 316 to 5010 nM | – | > 80% | < 0.1 µg/mL | – | 3.16 to 31.6 nM | – | – | – | – | –
N#Cc1ccc2c(c1)[C@@H](NC(=O)c1cnc3c(-c4cc(F)cc(F)c4F)c(F)ccc3c1N1CC(F)C1)CCO2 [Example 14] | < 0.1 µg/mL | 316 to 5010 nM | – | > 80% | < 0.1 µg/mL | – | 31.6 to 316 nM | – | – | – | – | –
O=C(N[C@H]1CCOc2ccccc21)c1cnc2c(-c3cc(F)cc(F)c3F)cccc2c1N1CC(F)C1 [Example 15] | < 0.1 µg/mL | 31.6 to 316 nM | > 80% | > 80% | < 0.1 µg/mL | – | < 3.16 nM | – | – | – | – | –
O=C(N[C@H]1CCc2ccccc21)c1cnc2c(-c3cc(F)cc(F)c3F)c(F)ccc2c1C1CCOCC1 [Example 16] | < 0.1 µg/mL | 3.16 to 31.6 nM | > 80% | > 80% | < 0.1 µg/mL | – | < 3.16 nM | – | – | – | – | –
CC(C)Oc1ccc2c(C3CCOCC3)c(C(=O)N[C@H]3CCOc4ccccc43)cnc2c1-c1cc(F)cc(F)c1F [Example 18] | < 0.1 µg/mL | 316 to 5010 nM | > 80% | > 80% | < 0.1 µg/mL | – | – | – | – | – | – | –
O=C(N[C@H]1CCc2ccccc21)c1cnc2c(-c3cc(F)cc(F)c3F)cccc2c1C1CCOCC1 [Example 19] | < 0.1 µg/mL | 316 to 5010 nM | > 80% | > 80% | < 0.1 µg/mL | – | < 3.16 nM | – | – | – | – | –
O=C(N[C@H]1CCCc2ccccc21)c1cnc2c(-c3cc(F)cc(F)c3F)cccc2c1C1CCOCC1 [Example 20] | < 0.1 µg/mL | 31.6 to 316 nM | > 80% | > 80% | < 0.1 µg/mL | – | – | – | – | – | – | –
CCc1c(C(=O)N[C@H]2CCOc3ccccc32)cnc2c(-c3cc(F)cc(F)c3F)c(Cl)ccc12 [Example 21] | < 0.1 µg/mL | – | > 80% | > 80% | < 0.1 µg/mL | – | < 3.16 nM | – | – | – | – | –
CCc1c(C(=O)N[C@H]2CCc3ccccc32)cnc2c(-c3cc(F)cc(F)c3F)c(Cl)ccc12 [Example 22] | < 0.1 µg/mL | 3.16 to 31.6 nM | > 80% | > 80% | < 0.1 µg/mL | – | – | – | – | – | – | –
O=C(N[C@H]1CCOc2ccccc21)c1cnc2c(Br)c(F)ccc2c1Cl [Intermediate 14A, 8-Bromo-4-chloro-N-[(4S)-3,4-dihydro-2H-chromen-4-yl]-7-fluoroquinoline-3-carboxamide] | – | – | – | – | – | – | – | – | – | – | – | 3.18
O=C(N[C@H]1CCOc2ccccc21)c1cnc2c(Br)c(F)ccc2c1N1CC(F)C1 [Intermediate 15A, 8-Bromo-N-[(4S)-3,4-dihydro-2H-chromen-4-yl]-7-fluoro-4-(3-fluoroazetidin-1-yl)quinoline-3-carboxamide] | – | – | – | – | – | – | – | – | – | – | – | 1.29
